{"source": "paper PMC11530130", "about": "“Peripherally restricted PICK1 inhibitor mPD5 ameliorates pain behaviors in murine inflammatory and neuropathic pain models” (JCI Insight, 2024)", "test_system": "mice, spared nerve injury (SNI) model", "assay": "SNI model of neuropathic pain, von Frey, single s.c. dose, male mice day 7", "format": "in vivo, mouse", "procedure": "Induction of neuropathic pain (SNI model).\nThe initial SNI pain experiment (Figure 4A) was performed by Phenotype Expertise, Marseilles, France – Pain and CNS behaviour CRO under supervision of Stéphane Gaillard, PhD (CEO). Surgery was performed on 8-week-old C57BL/6J male mice (Charles River). The spared nerve injury surgery was performed on anaesthetized mice with a buprenorphine […]\nsolution (0.05 mg/kg) injected s.c. 30 min before surgery (10 μL/g). For surgery, mice were anaesthetised with ketamine (100 mg/kg, i.p.) and xylazine (10 mg/kg, i.p.) (volume 10 µL/g) with 100 μL of 1% xylocaine solution infiltrated at the site of the incision. The distal trifurcation of the sciatic nerve was identified, and the tibial and common peroneal branches were ligated with polypropylene nonabsorbable 6-0 sutures (Ethicon) and 1 mm was cut out, leaving the sural branch intact. The wound was closed with sutures, and the animals were allowed to recover and returned to their cages. Two subcutaneous injections of buprenorphine (0.05 mg/kg) were performed with an 8 to 12 hours delay decreasing pain due to the surgery […]\nThe remaining SNI pain experiments were performed in-house using the following procedure.\nSNI surgery was performed on the left hindleg of C57BL/6J male and female mice (Janvier, France) under 2% isoflurane anaesthesia. Skin on the lateral surface was incised between hip and knee followed by lengthwise division of the biceps femoris muscle leading to exposure of the three branches of the sciatic nerve. Sural branch was left intact, while the peroneal and tibial branches were ligated with a single surgical knot and axotomized distally of the ligation.\nWounds were closed with surgical glue or medical clips and animals were monitored daily for signs of stress or discomfort, but in all cases recovered uneventfully.\nInduction of Diabetic neuropathy (STZ model).\nDiabetes was induced by a single i.p. injection of […] streptozocin (STZ) solution (100 μL/10 g, Sigma-Aldrich S0130, batch #WXBB7152V) in male seven-week-old C57BL/6J (Charles River) mice. Glycemia was tested before, and seven days after injection. All injected mice had blood glucose concentration >350 mg/dL from day seven and were used for analgesic testing of the compounds from day 14. One mouse had to be euthanized at seven days post injection. This experiment was performed by Phenotype Expertise, Marseilles, France - Pain and CNS behaviour CRO under supervision of Stéphane Gaillard, PhD (CEO).\nInduction of cancer induced bone pain (CIBP model).\nOsteosarcoma cell line NCTC 2472 (American Type Culture Collection, CCL-11TM) was cultured for two weeks prior to surgery in NCTC-135 medium (Sigma-Aldrich, Denmark) supplemented with sodium hydrogen carbonate and 10% equine serum (Sigma-Aldrich, Denmark). On the day of surgery, cells were washed with PBS and incubated with 3 mL trypsin-EDTA for five min followed by centrifugation (2800 rpm, 3 min). Supernatant was removed, and cell pellet resuspended in PBS to obtain a cell density of 10^7 cells/mL.\nTwo separate cohorts of female C3H/HeNHsd mice (Envigo, Netherlands) of 7-8 weeks, were anaesthetized with 6.25 mg/kg xylazine (Rompun vet, 20 mg/mL, Bayer, KVP Pharma + Veterinär Produkte GmbH, Germany, Batch: KV02BHF) and 43.75 mg/kg ketamine (Ketaminol vet, 100 mg/mL, MSD Animal Health, AN Boxmeer, The Netherlands, Batch:\nA140A01) and received 1.0-1.2% isoflurane (1000 mg/g isoflurane, Attane vet, ScanVet, Piramal Critical Care Ltd., UK, Batch: G123J18B) during surgery. The mouse was placed on a 37 °C heating pad. Both hind legs were shaved, and a small horizontal incision was made under the knee followed by a vertical incision of approximately 0.5 cm until the patellar tendon was exposed. The patellar tendon was moved to the lateral side exposing the distal epiphysis of the femur. A hole was made in the middle of the distal epiphysis by gently pushing a 30 G needle (0.3x12 mm, 30 Gx1/2”, Luer-Lock, CHIRANA T. Injecta, CH30012) through the bone […]\nwhile rotating. […]", "note": "Several values for one entry are separate records, joined by “and”; a condition that tells them apart may be missing. Equal values may be shown once."}
{"compound": "CCCCCCCCCCCCCC(=O)N(CCOCCOCCC(=O)N[C@@H](Cc1c[nH]cn1)C(=O)N[C@@H](Cc1c[nH]c2ccccc12)C(=O)N[C@@H](CC(C)C)C(=O)N[C@@H](CCCCN)C(=O)N[C@H](C(=O)O)C(C)C)CCOCCOCCC(=O)N[C@@H](Cc1c[nH]cn1)C(=O)N[C@@H](Cc1c[nH]c2ccccc12)C(=O)N[C@@H](CC(C)C)C(=O)N[C@@H](CCCCN)C(=O)N[C@H](C(=O)O)C(C)C", "note": "[mPD5, myristoyl-NPEG4-(HWLKV)2]", "values": [{"measurement": "effect on mechanical hypersensitivity (PWT)", "setting": "SNI day 7, male mice, s.c. 2 μmol/kg", "value": "no significant effect"}, {"measurement": "duration of significant reduction of mechanical hypersensitivity", "setting": "SNI day 7, male mice, s.c. 10 μmol/kg", "value": "up to 3 hours"}, {"measurement": "von Frey paw withdrawal threshold, individual animals (Fig 5B)", "setting": "dose group 2, contra, BL", "value": "2 and 1.4 (4×) and 1"}, {"measurement": "von Frey paw withdrawal threshold, individual animals (Fig 5B)", "setting": "dose group 2, contra, time 0", "value": "1.4 (2×) and 1 (4×)"}, {"measurement": "von Frey paw withdrawal threshold, individual animals (Fig 5B)", "setting": "dose group 2, contra, time 1", "value": 1}, {"measurement": "von Frey paw withdrawal threshold, individual animals (Fig 5B)", "setting": "dose group 2, injured side, BL", "value": "2 (2×) and 1.4 (4×)"}, {"measurement": "von Frey paw withdrawal threshold, individual animals (Fig 5B)", "setting": "dose group 2, injured side, time 0", "value": "0.07 (2×) and 0.16 (3×) and 0.4"}, {"measurement": "von Frey paw withdrawal threshold, individual animals (Fig 5B)", "setting": "dose group 2, injured side, time 1", "value": "0.6 (2×) and 1 (3×) and 1.4"}, {"measurement": "von Frey paw withdrawal threshold, individual animals (Fig 5B)", "setting": "dose group 10, contra, BL", "value": "1.4 (5×) and 1"}, {"measurement": "von Frey paw withdrawal threshold, individual animals (Fig 5B)", "setting": "dose group 10, contra, time 0", "value": "1 (4×) and 1.4 (2×)"}, {"measurement": "von Frey paw withdrawal threshold, individual animals (Fig 5B)", "setting": "dose group 10, contra, time 1", "value": "1 (3×) and 1.4 (3×)"}, {"measurement": "von Frey paw withdrawal threshold, individual animals (Fig 5B)", "setting": "dose group 10, injured side, BL", "value": "1.4 (5×) and 1"}, {"measurement": "von Frey paw withdrawal threshold, individual animals (Fig 5B)", "setting": "dose group 10, injured side, time 0", "value": "0.16 (2×) and 0.07 (3×) and 0.4"}, {"measurement": "von Frey paw withdrawal threshold, individual animals (Fig 5B)", "setting": "dose group 10, injured side, time 1", "value": "1.4 (2×) and 1"}, {"measurement": "von Frey paw withdrawal threshold, individual animals (Fig 5B)", "setting": "dose group 50, contra, BL", "value": "1.4 (4×) and 1 (2×)"}, {"measurement": "von Frey paw withdrawal threshold, individual animals (Fig 5B)", "setting": "dose group 50, contra, time 0", "value": "1.4 (3×) and 1 (3×)"}, {"measurement": "von Frey paw withdrawal threshold, individual animals (Fig 5B)", "setting": "dose group 50, contra, time 1", "value": "1.4 (4×) and 1 (2×)"}, {"measurement": "von Frey paw withdrawal threshold, individual animals (Fig 5B)", "setting": "dose group 50, injured side, BL", "value": "1.4 (5×) and 1"}, {"measurement": "von Frey paw withdrawal threshold, individual animals (Fig 5B)", "setting": "dose group 50, injured side, time 0", "value": "0.07 (2×) and 0.16 (2×) and 0.4 (2×)"}, {"measurement": "von Frey paw withdrawal threshold, individual animals (Fig 5B)", "setting": "dose group 50, injured side, time 1", "value": "1 (3×) and 1.4 (2×) and 2"}]}
